In US10106519B2, “3-phenyl-7-hydroxy-isocoumarins as macrophage migration inhibitory factor (MIF) inhibitors” (The Provost, Fellows, Foundation Scholars, & the Other …, priority 2014, dated 2018):
“Also recorded” adds a separate entry of the source.

What was measured:
[1] = test system: Lewis Lung carcinoma cells; assay: Subcutaneous LLC1 tumour model with in vivo tautomerase inhibitor treatment; parameters: species or system C57BL/6 mice
Protocol: Log phase cultures of LLC-1 cells were harvested by trypsinisation and washed three times with sterile phosphate buffered saline (PBS) and resuspended at a cell density of 5×10^5/ml in PBS. Animals were shaved with an electric shaver 24 hours before subcutaneous injection. 5×10^5 Lewis Lung cells were injected subcutaneously into the left flank of C57BL/6 mice of 6-8 weeks. Animals were monitored for the duration of the experiment and tumour measurements were recorded twice weekly with a digital callipers. Tumour volume (mm^3) was calculated as 0.5×L×W^2, where length is representative of the larger tumour diameter and the width represents the smaller tumour diameter. Animals are sacrificed when tumours reach a diameter of 15 mm or if tumours become ulcerated. Tumours are then removed along with the lungs, spleen and liver.
30 minutes prior to LLC-1 inoculation, inhibitors (TI 19/ISO-1) were administered at a concentration of 35 mg/kg in a volume of 100 μl 5% DMSO in sterile PBS. Control groups were given injections of vehicle 5% DMSO in sterile PBS or sterile PBS alone. Animals were treated twice weekly for four weeks.
In order to assess the antitumour activity of the novel tautomerase inhibitors in vivo, a subcutaneous LLC-1 cell model was set up. The subcutaneous model was chosen so that tumours could be easily visualised and measured during the course of the experiment and to allow assessment of the growth of the tumour in real time. Lewis Lung carcinoma cells (5×10^5) were injected sub-cutaneously into the left flank of C57BL/6 mice. Caliper measurements were taken twice weekly and tumour volume (mm^3) was calculated as 0.5×L×W^2. […] The cut off point for this model was when the tumour measured 15 mm in diameter. This model gave us an indication of normal tumour growth in this subcutaneous model. It can be seen from this model that from day 22 to day 28 the size of the tumour grows considerably.
Once it was determined that the enzymatic activity played a role in the growth of tumours, the subcutaneous LLC model was then used to assess the efficiency of the small weight molecular inhibitors. C57/B16 mice were injected intraperitoneally with 35 mg/kg of each of the inhibitors 30 minutes prior to subcutaneous tumour inoculation and again twice weekly for 4 weeks. Animals were monitored daily and tumour measurements taken until the tumour measured 15 mm in diameter.

[2] = test system: LPS mediated PGE-2 production; assay: PGE-2 production in LPS treated RAW macrophage cells (ELISA); format: cell-based, murine; conditions: 100 μM inhibitor, 100 ng/ml LPS (FIG. 4)
Protocol: Raw macrophage murine cells were plated at a cell density of 1×10^5 and pre-treated with 100 μM of each of the inhibitors […] for 30 minutes at 37° C. in a humidified 5% CO2 incubator. Raw macrophage cells were then treated with 100 ng/ml of LPS and supernatants were collected after 16 hours at 37° C. in a humidified 5% CO2 incubator and analysed for PGE-2 production. Levels of PGE-2 were measured by ELISA. (CAT # KGE004 R&D Syst).

MIF tautomerase = molecular target: T1, MIF tautomerase (Homo sapiens, UniProt P14174); assay: MIF tautomerase inhibition assay; format: biochemical; conditions: panel of 25 potential inhibitors, 100 μM (FIG. 1, FIG. 3)
T1 construct: host or cells: E. coli BL21
T1 sequence (P14174 2-115 limits assumed): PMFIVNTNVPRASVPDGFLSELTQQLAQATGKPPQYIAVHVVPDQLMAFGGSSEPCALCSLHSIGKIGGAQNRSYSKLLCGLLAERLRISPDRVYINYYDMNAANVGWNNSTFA
Protocol: Human recombinant MIF was purified as per Bernhagen et al. (Biochemistry, 1994. 33(47): p. 14144-55). Briefly, BL21 E. coli cells expressing the pET11b-MIF construct were grown to an absorbance at 600 nm (OD) of […]. Isopropyl 1-thio-P-D-galactopyranoside (IPTG) (Sigma—cat no. 16758) was added to a final concentration of 1 mM to induce expression of the MIF gene and incubated for another 3 hours. Bacteria were then harvested by centrifugation and the cell pellets were then frozen. Protein purification was then out sourced to Scottish Biomedical, where the bacterial pellets were thawed and resuspended in 3 ml of Tris-buffered saline. The bacteria were then lysed by adding an equivalent number of glass beads and vortexing strongly for 10 minutes. Glass beads were removed by centrifugation at 1000 g for 10 minutes and the bacterial extract was centrifuged at 1000 g for a further 30 minutes. The supernatant was then sterile-filtered through a […] membrane filter and put through a MONO Q anion exchange chromatography column. MIF was eluted using Tris-buffered saline in the first flow-through fractions and pooled and placed on ice. These pooled fractions were then applied to a C8-SepPak reverse phase column. Unbound material was eluted by washing with water and 20% acetonitrile/water. MIF was then eluted using 6 column volumes of 60% acetonitrile/water. This sample was then renatured by dissolving MIF at a concentration of […] in 20 mM sodium phosphate buffer containing 8M urea and 5 mM DTT and dialysed against 20 mM sodium phosphate buffer. […]
L-dopachrome methyl ester was prepared at 2.4 mM through oxidation of L-3,4-dihydroxyphenylalanine methyl ester with sodium periodate. The solution was mixed well and placed at room temperature for 5 minutes before being placed on ice in the dark. 100 ng of rMIF was added to each of the Tautomerase Inhibitors or ISO-1 at a number of concentrations (1, 50 and 100 μM) with substrate. The decrease in absorbance was measured with a spectrophotometer at 475 nm every 10 seconds for 10 minutes.
The rate of the reaction of rMIF and substrate alone was measured over time at 475 nm. This was compared to the rate of this reaction with the addition of 100 μM of each of the inhibitors. Inhibition was calculated as the percentage in the reduction of the rate of change with the addition of the inhibitor averaged over five minutes.

Q: What does the source list for Cc1ccccc1-c1cc2ccccc2c(=O)o1 [TI 19]?
A: tumour volume ([1]; 35 mg/kg intraperitoneally 30 min prior to inoculation and twice weekly (FIG. 8)): 116.1±30.41 mm^3; reduction in tumour size, in words ([1]; 35 mg/kg intraperitoneally, versus untreated or vehicle (DMSO) group (FIG. 8)): significant reduction in tumour size; also recorded: significant reduction in tumour volume; effectiveness in reducing tumour size relative to ISO-1 ([1]; at 28 days): approximately twice as effective; reduction of LPS mediated PGE-2 production, in words [2]: significantly reduces; also recorded: greater reduction in PGE-2 than ISO-1; also recorded: reduced PGE-2 levels to comparable levels in untreated cells; inhibition of MIF tautomerase enzymatic activity, in words (MIF tautomerase): highest percentage inhibition of MIF enzymatic activity; also recorded: significantly more potent than the commercially available small molecule MIF inhibitor ISO-1
